Data from US9879059B2, “Tailoring multivalent interactions of biopolymers with a polyproline scaffold” (Agency for Science, Technology and Research, priority 2013, dated 2018).

How the values were obtained:
[1] = biological target: nerve growth factor (NGF) (Homo sapiens, UniProt P01138); experiment: ELISA of NGF binding to immobilized biotinylated glycopeptides
Method: The new plate was rinsed three times with PBS containing 0.05% Tween 20 and one time with PBS before the experiment. 100 μL of biotinylated glycopeptide solutions (0.5 μM) were added to required wells in the Pierce Streptavidin Coated High Binding Capacity plates (#15501), and incubated overnight at room temperature. After immobilization of glycopeptides, the plates were rinsed three times with PBS containing 0.05% Tween 20 and one time with PBS. The surface was then blocked with 125 μL of 3% BSA in PBS for 1 hr, followed by rinsing three times with PBS containing 0.05% Tween 20 and one time with PBS. 100 μL of varying concentrations (0 nM, 10 nM, 20 nM, 30 nM, 40 nM, 50 nM and 60 nM) of NGF in PBS containing 1% BSA was added to the wells and incubated for 2 hrs at 37° C. […]
The wells were then incubated with anti-NGF labeled with HRP in PBS containing 1% BSA. Absorbance signal was then developed with 100 μL of TMB Substrate from Thermo Scientific Pierce (#0034021) for 20 to 30 min before quenching with 100 μL of 2M H2SO4. Absorbance at 450 nm was then measured.
To evaluate the ability of the glycopeptides to interact with protein receptors, the binding affinity of each agent with nerve growth factor (NGF), which is known to bind CS-E sulfation motif selectively,^[9] was examined by ELISA. […] The amount of glycopeptide-bound NGF was measured by HRP-conjugated polyclonal NGF antibody.

[2] = biological target: NGF (Homo sapiens, UniProt P01138); conditions: for ka2 / kd1 / kd2 / ka1: two-state kinetic model, 25° C., NGF 11-185 nM; for ka1: standard errors in parentheses
Method: Affinity measurements were performed using a Biacore T100 system (GE Heathcare). The CM5 sensor chip was used for all measurements. At first, the instrument was primed with HBS-EP+ (GE Heathcare) buffer. Then, 700RU of streptavidin was immobilized on all flow cells. A 1:1 mixture of 0.4 M EDC and 0.1 M NHS was used to activate the flow cells, and 0.008 mg/mL streptavidin solution reconstituted in Acetate 5.0 buffer (GE Healthcare) was injected. Blocking of the remaining activated groups was done with a 1 M solution of ethanolamine (pH 8.5). Flow cell 1 (or 3) was used as a reference to subtract nonspecific binding, drift, and the bulk refractive index, while flow cell 2 (or 4) was further immobilized with glycol-peptide samples of varying structures. Biotinylated glycopeptides (20 nM) were dissolved in HBS-EP+ buffer and were injected to flow cell 2 (or 4) at 30 μL/min until the baseline response increased by 104 or 127 RU. The instrument was then primed using running buffer (HBS-EP+). NGF was dissolved in HBS-EP+ buffer to produce a 185 nM stock solution, which was serially diluted to produce a concentration series down to 11 nM. […] Flow cells were regenerated by 2.5 M MgCl2 at 30 μL/min for 30 seconds after injection of each protein solutions.
Surface plasmon resonance (SPR) technology was further employed to facilitate quantitative, real-time kinetic analysis of glycopeptide-NGF interaction. Streptavidin was coated on a carboxydextran CM5 sensor chip, using EDC/NHS coupling chemistry, at a relatively low density (≈700 RU) to prevent nonspecific interactions with NGF. Biotinylated glycopeptides were then immobilized on streptavidin-coated surface at normalized levels by molecular weights,^[12] […] Kinetics were monitored at 25° C. by injecting various concentrations of NGF (11-185 nM) over the surface for 240 s at 50 μL·min^−1 and recording the dissociation for 800 s before the surface was regenerated with 2.5 M solution of MgCl2. […] Further kinetic analysis was conducted using a two-state binding model for comprehensive understanding of this binding event.

[3] = tested on: PC12 cells; conditions: for effect on NGF-mediated neurite outgrowth: NGF 4 ng/ml, glycopeptide 10 μM, 72 hr, compared to NGF-only control
Method: Rat pheochromocytoma (PC12) cells were maintained in T75 tissue culture flask in complete RPMI 1640 growth medium containing 10% heat-inactivated horse serum (HI-HS), 5% fetal bovine serum (FBS) and 1% penicillin/streptomycin. Stock cultures from liquid nitrogen were grown at 37° C. with 5% CO2 in a humidified chamber for 72 hr before experiments.
13 mm glass coverslips were submerged in 65% nitric acid for at least three days. The coverslips were washed with distilled water, 70% ethanol and 100% ethanol 3× each for 30 minutes with gentle rocking. The coverslips were dried in the cell culture hood overnight with UV sterilization. For coating, 60 μl of laminin solution (25 μg/ml in sterile PBS) was added to each coverslip, followed by 2 hr incubation at 37° C. The coverslips were rinsed 3× with PBS and dried in the hood before use.
PC12 cells were seeded on laminin-coated coverslips at a density of 100 cells/mm^2 in RPMI 1640 differentiation medium containing 1% HI-HS. Cells were allowed to attach to the surface for 1 hr at 37° C. The coverslips were transferred to 24-well plates and the cells were incubated with fresh differentiation medium for 1 hr. Glycopeptides were incubated with NGF in differentiation medium for 1 hr at room temperature before adding to the cells together. At the end of culture period, the cells were fixed with 4% formaldehyde solution for 15 minutes at room temperature and rinsed 2× with PBS. All experiments were repeated three times and done in duplicate each time. For each treatment, 400-500 randomly selected single cells were counted. The percentage of neurite-bearing cells was determined by counting the number of cells with neurite length at least one cell body long.

[4] = tested on: TrkA; conditions: 10 μM glycopeptide 1 hr, NGF 4 ng/ml 5 minutes, ratio phospho-TrkA to total TrkA
Method: PC12 cells were seeded on laminin-coated coverslips at a density of 300 cells/mm^2 and one coverslip was used for each treatment (˜40,000 cells in total). Cells were starved in differentiation medium for 12-18 hr before use. For glycopeptide treatment, cells were incubated with fresh differentiation medium containing 10 μM glycopeptide for 1 hr at 37° C. To induce TrkA phosphorylation, cells were treated with NGF at a final concentration of 4 ng/ml for 5 minutes at 37° C. Cells were washed with ice cold PBS and lysed using RIPA lysis buffer containing protease and phosphatase inhibitors. The protein samples were separated on 4-12% SDS-PAGE gel and transferred to nitrocellulose membrane. Membranes were blocked for 1 h at room temperature and probed with anti-TrkA Ab (1:1500) and anti-pTrkA Ab (1:1500) overnight at 4° C., followed by 2 hr incubation with horseradish peroxidase-conjugated secondary antibodies. Enhanced chemiluminescence system was used for detection. The bands were quantified using the ImageJ program and the ratio of phosphor-TrkA to total TrkA was calculated and expressed as arbitrary units (a.u.).

Sequence of NGF (P01138 122-241, species assumed): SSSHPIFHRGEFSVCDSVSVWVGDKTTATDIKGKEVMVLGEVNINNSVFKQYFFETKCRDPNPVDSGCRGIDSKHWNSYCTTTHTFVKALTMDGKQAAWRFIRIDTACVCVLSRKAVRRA
Sequence of nerve growth factor (NGF) (P01138 122-241, species assumed): as above

Row | SMILES | binding to NGF (ELISA) ([1]; glycopeptide immobilized on streptavidin plate, NGF 0-60 nM, result in words) | ka2 [2] | kd1 [2] | kd2 [2] | ka1 [2] | effect on NGF-mediated neurite outgrowth [3] | increase in NGF binding affinity in comparison to 1 (ELISA) ([1]; relative to glycopeptide 1) [fold] | binds to NGF more strongly than agent 1 (comparison of KD values) ([2]; KD of 5 versus KD of 1) | SPR overall response to NGF ([2]; compared with glycopeptide 1, result in words) | percentage of neurite-bearing cells ([3]; 4 ng/ml NGF and 10 μM glycopeptide 3 days, 2 ng/ml NGF and 6 μM glycopeptide 5 days, result in words) | PC12 cell morphology with glycopeptide only ([3]; in the absence of NGF) | increase of NGF-induced TrkA phosphorylation compared to control [4] [%]
1 | COC(=O)[C@@H]1C[C@@H](n2cc(CO[C@@H]3O[C@H](COS(=O)(=O)O)[C@H](OS(=O)(=O)O)[C@H](O[C@@H]4O[C@H](C(=O)O)[C@@H](O)[C@H](O)[C@H]4O)[C@H]3NC(C)=O)nn2)CN1C(=O)[C@@H]1C[C@@H](n2cc(CO[C@@H]3O[C@H](COS(=O)(=O)O)[C@H](OS(=O)(=O)O)[C@H](O[C@@H]4O[C@H](C(=O)O)[C@@H](O)[C@H](O)[C@H]4O)[C@H]3NC(C)=O)nn2)CN1C(=O)[C@@H]1C[C@@H](n2cc(CO[C@@H]3O[C@H](COS(=O)(=O)O)[C@H](OS(=O)(=O)O)[C@H](O[C@@H]4O[C@H](C(=O)O)[C@@H](O)[C@H](O)[C@H]4O)[C@H]3NC(C)=O)nn2)CN1C(=O)[C@@H]1C[C@@H](n2cc(CO[C@@H]3O[C@H](COS(=O)(=O)O)[C@H](OS(=O)(=O)O)[C@H](O[C@@H]4O[C@H](C(=O)O)[C@@H](O)[C@H](O)[C@H]4O)[C@H]3NC(C)=O)nn2)CN1C(=O)[C@@H]1C[C@@H](n2cc(CO[C@@H]3O[C@H](COS(=O)(=O)O)[C@H](OS(=O)(=O)O)[C@H](O[C@@H]4O[C@H](C(=O)O)[C@@H](O)[C@H](O)[C@H]4O)[C@H]3NC(C)=O)nn2)CN1C(=O)[C@@H]1C[C@@H](n2cc(CO[C@@H]3O[C@H](COS(=O)(=O)O)[C@H](OS(=O)(=O)O)[C@H](O[C@@H]4O[C@H](C(=O)O)[C@@H](O)[C@H](O)[C@H]4O)[C@H]3NC(C)=O)nn2)CN1C(=O)[C@@H]1C[C@@H](n2cc(CO[C@@H]3O[C@H](COS(=O)(=O)O)[C@H](OS(=O)(=O)O)[C@H](O[C@@H]4O[C@H](C(=O)O)[C@@H](O)[C@H](O)[C@H]4O)[C@H]3NC(C)=O)nn2)CN1C(=O)[C@@H]1C[C@@H](n2cc(CO[C@@H]3O[C@H](COS(=O)(=O)O)[C@H](OS(=O)(=O)O)[C@H](O[C@@H]4O[C@H](C(=O)O)[C@@H](O)[C@H](O)[C@H]4O)[C@H]3NC(C)=O)nn2)CN1C(=O)[C@@H]1C[C@@H](n2cc(CO[C@@H]3O[C@H](COS(=O)(=O)O)[C@H](OS(=O)(=O)O)[C@H](O[C@@H]4O[C@H](C(=O)O)[C@@H](O)[C@H](O)[C@H]4O)[C@H]3NC(C)=O)nn2)CN1C(=O)[C@@H]1C[C@@H](n2cc(CO[C@@H]3O[C@H](COS(=O)(=O)O)[C@H](OS(=O)(=O)O)[C@H](O[C@@H]4O[C@H](C(=O)O)[C@@H](O)[C@H](O)[C@H]4O)[C@H]3NC(C)=O)nn2)CN1C(=O)[C@@H]1C[C@@H](n2cc(CO[C@@H]3O[C@H](COS(=O)(=O)O)[C@H](OS(=O)(=O)O)[C@H](O[C@@H]4O[C@H](C(=O)O)[C@@H](O)[C@H](O)[C@H]4O)[C@H]3NC(C)=O)nn2)CN1C(=O)[C@@H]1C[C@@H](n2cc(CO[C@@H]3O[C@H](COS(=O)(=O)O)[C@H](OS(=O)(=O)O)[C@H](O[C@@H]4O[C@H](C(=O)O)[C@@H](O)[C@H](O)[C@H]4O)[C@H]3NC(C)=O)nn2)CN1C(=O)CCOCCOCCOCCOCCOCCOCCOCCOCCOCCOCCOCCOCCNC(=O)CCCC[C@@H]1SC[C@@H]2NC(=O)N[C@@H]21 [Glycopeptide 1] | moderate binding affinity | 3.62 (±0.04) × 10^−3 M^−1s^−1 | 3.22 (±0.07) × 10^−2 s^−1 | 6.43 (±0.13) × 10^−4 s^−1 | 1.95 (±0.39) × 10^3 M^−1s^−1 | no effect | – | – | – | – | – | –
2 | COC(=O)[C@@H]1C[C@@H](n2cc(CO[C@@H]3O[C@H](COS(=O)(=O)O)[C@H](OS(=O)(=O)O)[C@H](O[C@@H]4O[C@H](C(=O)O)[C@@H](O)[C@H](O)[C@H]4O)[C@H]3NC(C)=O)nn2)CN1C(=O)[C@@H]1CCCN1C(=O)[C@@H]1CCCN1C(=O)[C@@H]1C[C@@H](n2cc(CO[C@@H]3O[C@H](COS(=O)(=O)O)[C@H](OS(=O)(=O)O)[C@H](O[C@@H]4O[C@H](C(=O)O)[C@@H](O)[C@H](O)[C@H]4O)[C@H]3NC(C)=O)nn2)CN1C(=O)[C@@H]1CCCN1C(=O)[C@@H]1CCCN1C(=O)[C@@H]1C[C@@H](n2cc(CO[C@@H]3O[C@H](COS(=O)(=O)O)[C@H](OS(=O)(=O)O)[C@H](O[C@@H]4O[C@H](C(=O)O)[C@@H](O)[C@H](O)[C@H]4O)[C@H]3NC(C)=O)nn2)CN1C(=O)[C@@H]1CCCN1C(=O)[C@@H]1CCCN1C(=O)[C@@H]1C[C@@H](n2cc(CO[C@@H]3O[C@H](COS(=O)(=O)O)[C@H](OS(=O)(=O)O)[C@H](O[C@@H]4O[C@H](C(=O)O)[C@@H](O)[C@H](O)[C@H]4O)[C@H]3NC(C)=O)nn2)CN1C(=O)[C@@H]1CCCN1C(=O)[C@@H]1CCCN1C(=O)[C@@H]1C[C@@H](n2cc(CO[C@@H]3O[C@H](COS(=O)(=O)O)[C@H](OS(=O)(=O)O)[C@H](O[C@@H]4O[C@H](C(=O)O)[C@@H](O)[C@H](O)[C@H]4O)[C@H]3NC(C)=O)nn2)CN1C(=O)[C@@H]1CCCN1C(=O)[C@@H]1CCCN1C(=O)[C@@H]1C[C@@H](n2cc(CO[C@@H]3O[C@H](COS(=O)(=O)O)[C@H](OS(=O)(=O)O)[C@H](O[C@@H]4O[C@H](C(=O)O)[C@@H](O)[C@H](O)[C@H]4O)[C@H]3NC(C)=O)nn2)CN1C(=O)[C@@H]1CCCN1C(=O)[C@@H]1CCCN1C(=O)[C@@H]1C[C@@H](n2cc(CO[C@@H]3O[C@H](COS(=O)(=O)O)[C@H](OS(=O)(=O)O)[C@H](O[C@@H]4O[C@H](C(=O)O)[C@@H](O)[C@H](O)[C@H]4O)[C@H]3NC(C)=O)nn2)CN1C(=O)[C@@H]1CCCN1C(=O)[C@@H]1CCCN1C(=O)[C@@H]1C[C@@H](n2cc(CO[C@@H]3O[C@H](COS(=O)(=O)O)[C@H](OS(=O)(=O)O)[C@H](O[C@@H]4O[C@H](C(=O)O)[C@@H](O)[C@H](O)[C@H]4O)[C@H]3NC(C)=O)nn2)CN1C(=O)[C@@H]1CCCN1C(=O)[C@@H]1CCCN1C(=O)[C@@H]1C[C@@H](n2cc(CO[C@@H]3O[C@H](COS(=O)(=O)O)[C@H](OS(=O)(=O)O)[C@H](O[C@@H]4O[C@H](C(=O)O)[C@@H](O)[C@H](O)[C@H]4O)[C@H]3NC(C)=O)nn2)CN1C(=O)[C@@H]1CCCN1C(=O)[C@@H]1CCCN1C(=O)[C@@H]1C[C@@H](n2cc(CO[C@@H]3O[C@H](COS(=O)(=O)O)[C@H](OS(=O)(=O)O)[C@H](O[C@@H]4O[C@H](C(=O)O)[C@@H](O)[C@H](O)[C@H]4O)[C@H]3NC(C)=O)nn2)CN1C(=O)[C@@H]1CCCN1C(=O)[C@@H]1CCCN1C(=O)[C@@H]1C[C@@H](n2cc(CO[C@@H]3O[C@H](COS(=O)(=O)O)[C@H](OS(=O)(=O)O)[C@H](O[C@@H]4O[C@H](C(=O)O)[C@@H](O)[C@H](O)[C@H]4O)[C@H]3NC(C)=O)nn2)CN1C(=O)[C@@H]1CCCN1C(=O)[C@@H]1CCCN1C(=O)[C@@H]1C[C@@H](n2cc(CO[C@@H]3O[C@H](COS(=O)(=O)O)[C@H](OS(=O)(=O)O)[C@H](O[C@@H]4O[C@H](C(=O)O)[C@@H](O)[C@H](O)[C@H]4O)[C@H]3NC(C)=O)nn2)CN1C(=O)[C@@H]1CCCN1C(=O)[C@@H]1CCCN1C(=O)CCOCCOCCOCCOCCOCCOCCOCCOCCOCCOCCOCCOCCNC(=O)CCCC[C@@H]1SC[C@@H]2NC(=O)N[C@@H]21 [Glycopeptide 5] | – | 1.97 (±0.02) × 10^−3 M^−1s^−1 | 2.74 (±0.04) × 10^−2 s^−1 | 6.00 (±0.17) × 10^−4 s^−1 | 4.65 (±0.16) × 10^4 M^−1s^−1 | significantly promoted neurite outgrowth | 4.6 | approximately 18 fold | higher overall responses | greatly increased | remained round-shaped and undifferentiated | ~40
